From patent US20260123654A1, “METHOD FOR IMPROVING THE BIOAVAILABILITY OF FUNCTIONAL FOOD PRODUCTS” (priority 2022, published 2026)

What was measured:
[1] = Triacylglycerols (TAG) content in rat serum after bolus intragastric administration of olive oil; format: in vivo, Wistar rats; conditions: 1, 2, and 3 hours after bolus intragastric administration of olive oil; xenon 280 vol. %, krypton 24 vol. %
Method: Studies on the effect of xenon on the absorption and transport of triacylglycerols were carried out in an experiment as described [Wang Z., Wang L., Zhang Z., Feng L., Song X., & Wu J. Apolipoprotein A-IV involves in glucose and lipid metabolism of rat//Nutrition & metabolism.-2019.-T. 16.- ? 1.-P. 1-9.], were performed on 12 Wistar rats weighing 320-360 g.
All animals were divided into 3 groups: 1-control, 2-experimental, 3-experimental. The animals were fasted for 6 hours before the experiment, and then rats of the control group (n=4) were injected intragastrically with bolus Extra Virgin olive oil (Aceites Toledo, Spain) at a dose of 1 ml/100 g body weight. […]
An introduction of gases into the oils was carried out using an emulsion production reactor with a volume of 11. […] A content of xenon and krypton in the oil was determined by a gas chromatography method. […]
Triacylglycerols (TAG) content was immediately determined in blood serum using enzyme kits from Chronolab (Spain). For this purpose, 10 μl of serum or standard TAG solution was added to 1 ml of a working reagent, incubated for 5 min at […] in a thermostat and an optical density at 500 nm was determined on a spectrophotometer.

[2] = Omega-3 index in male volunteers after intake of capsules; format: in vivo; conditions: xenon 5-250 vol. %, krypton 5-70 vol. % in Epax 5025 TGN
Method: Testing was carried out on 14 male volunteers, age from 38 to 47 years. Control and 5 experimental groups of 2 people each. […] For testing the control group, the product used was Epax Ultra Concentrates (Epax 5025 TGN), manufactured by Epax Norway AS. For experimental group 1 xenon was introduced into the product in concentration of 5 vol. %; for experimental group 2-20 vol. %; for experimental group 3-250 vol. %; for experimental group 4-krypton-5 vol. %; for experimental group 5-24 vol. %; for experimental group 6-70 vol. %. A product saturation with gases was done as described above, but at a small overpressure: krypton at 2.0 mPa, and xenon—0.2 mPa. All products (for control and experimental groups) were encapsulated in soft gelatin capsules weighing 0.5 g. All volunteers took 4 capsules per day, 2 in the morning and 2 in the evening, on an empty stomach. Omega-3 index tests were again taken after 1 month.

[3] = when injected into the body; cited from earlier work

TAG levels versus control [1] | effect on Omega-3 index [2] | SMILES | time to complete elimination of the gas from the body [3]
significant increase | dose-dependent increase | [Kr] [krypton] | –
significant increase | dose-dependent increase | [Xe] [xenon] | ≤ 4 h
